Experiments:
Assay type in all cases: functional
MDA-MB-435 = assay: Cytotoxicity against Homo sapiens (human) MDA-MB-435 cells after 48 hr by SRB assay; settings: MDA-MB-435, 48 h
M14 = assay: Cytotoxicity against Homo sapiens (human) M14 cells after 48 hr by SRB assay; settings: M14, 48 h
LOX IMVI = assay: Cytotoxicity against Homo sapiens (human) LOXIMVI cells after 48 hr by SRB assay
U-251 = assay: Cytotoxicity against Homo sapiens (human) U251 cells after 48 hr by SRB assay; settings: U-251, 48 h
SNB-75 = assay: Cytotoxicity against Homo sapiens (human) SNB75 cells after 48 hr by SRB assay; settings: SNB-75, 48 h
Hs-578T = assay: Cytotoxicity against Homo sapiens (human) Hs578T cells after 48 hr by SRB assay
MCF7 [1] = assay: Cytotoxicity against Homo sapiens (human) MCF7 cells after 48 hr by SRB assay; settings: MCF7, 48 h
MDA-MB-231 = assay: Cytotoxicity against Homo sapiens (human) MDA-MB-231 cells after 48 hr by SRB assay; settings: MDA-MB-231, 48 h
DU-145 = assay: Cytotoxicity against Homo sapiens (human) DU145 cells after 48 hr by SRB assay; settings: DU-145, 48 h
UO-31 = assay: Cytotoxicity against Homo sapiens (human) UO31 cells after 48 hr by SRB assay; settings: UO-31, 48 h
CAKI-1 = assay: Cytotoxicity against Homo sapiens (human) Caki1 cells after 48 hr by SRB assay; settings: CAKI-1, 48 h
ACHN = assay: Cytotoxicity against Homo sapiens (human) ACHN cells after 48 hr by SRB assay
786-0 = assay: Cytotoxicity against Homo sapiens (human) 786-0 cells after 48 hr by SRB assay; settings: 786-0, 48 h
OVCAR-8 = assay: Cytotoxicity against Homo sapiens (human) OVCAR8 cells after 48 hr by SRB assay; settings: OVCAR-8, 48 h
OVCAR-5 = assay: Cytotoxicity against Homo sapiens (human) OVCAR5 cells after 48 hr by SRB assay; settings: OVCAR-5, 48 h
OVCAR-4 = assay: Cytotoxicity against Homo sapiens (human) OVCAR4 cells after 48 hr by SRB assay; settings: OVCAR-4, 48 h
OVCAR-3 = assay: Cytotoxicity against Homo sapiens (human) OVCAR3 cells after 48 hr by SRB assay; settings: OVCAR-3, 48 h
UACC-62 = assay: Cytotoxicity against Homo sapiens (human) UACC62 cells after 48 hr by SRB assay; settings: UACC-62, 48 h
UACC-257 = assay: Cytotoxicity against Homo sapiens (human) UACC257 cells after 48 hr by SRB assay; settings: UACC-257, 48 h
SK-MEL-5 = assay: Cytotoxicity against Homo sapiens (human) SK-MEL-5 cells after 48 hr by SRB assay; settings: SK-MEL-5, 48 h
[2] = Cytotoxicity against Homo sapiens (human) breast cancer cells after 48 hr by SRB assay; settings: Cancer cell lines
[3] = Cytotoxicity against Homo sapiens (human) prostate cancer cells after 48 hr by SRB assay; settings: Cancer cell lines
[4] = Cytotoxicity against Homo sapiens (human) renal cancer cells after 48 hr by SRB assay; settings: Cancer cell lines
[5] = Cytotoxicity against Homo sapiens (human) melanoma cells after 48 hr by SRB assay; settings: Melanoma cell
[6] = Cytotoxicity against Homo sapiens (human) CNS cancer cells after 48 hr by SRB assay; settings: Cancer cell lines
[7] = Cytotoxicity against Homo sapiens (human) colon cancer cells after 48 hr by SRB assay; settings: Cancer cell lines
[8] = Cytotoxicity against Homo sapiens (human) non-small cell lung cancer cells after 48 hr by SRB assay; settings: Cancer cell lines
NCI-H460 = assay: Cytotoxicity against Homo sapiens (human) NCI-H460 cells assessed as cellular growth after 48 hr by Alamar blue assay; set-up: concentration or dose not given beside the values
[9] = Cytotoxicity against Homo sapiens (human) leukemia cells after 48 hr by SRB assay; settings: Leukemia cell
T47D = assay: Cytotoxicity against Homo sapiens (human) T47D cells after 48 hr by SRB assay
SF-539 = assay: Cytotoxicity against Homo sapiens (human) SF539 cells after 48 hr by SRB assay; settings: SF-539, 48 h
SF-295 = assay: Cytotoxicity against Homo sapiens (human) SF295 cells after 48 hr by SRB assay; settings: SF-295, 48 h
SF-268 = assay: Cytotoxicity against Homo sapiens (human) SF268 cells after 48 hr by SRB assay; settings: SF-268, 48 h
HCT-15 = assay: Cytotoxicity against Homo sapiens (human) HCT15 cells after 48 hr by SRB assay; settings: HCT-15, 48 h
HT-29 = assay: Cytotoxicity against Homo sapiens (human) HT-29 cells after 48 hr by SRB assay; settings: HT-29, 48 h
HCC 2998 = assay: Cytotoxicity against Homo sapiens (human) HCC2998 cells after 48 hr by SRB assay; settings: HCC 2998, 48 h
NCI-H522 = assay: Cytotoxicity against Homo sapiens (human) NCI-H522 cells after 48 hr by SRB assay; settings: NCI-H522, 48 h
COLO 205 = assay: Cytotoxicity against Homo sapiens (human) COLO205 cells after 48 hr by SRB assay; settings: COLO 205, 48 h
NCI-H23 = assay: Cytotoxicity against Homo sapiens (human) NCI-H23 cells after 48 hr by SRB assay; settings: NCI-H23, 48 h
[10] = Cytotoxicity against Homo sapiens (human) NCI-H322 cells after 48 hr by SRB assay; settings: NCI-H322, 48 h
EKVX = assay: Cytotoxicity against Homo sapiens (human) EKVX cells after 48 hr by SRB assay
HOP-62 = assay: Cytotoxicity against Homo sapiens (human) HOP62 cells after 48 hr by SRB assay; settings: HOP-62, 48 h
A549 = assay: Cytotoxicity against Homo sapiens (human) A549 cells after 48 hr by SRB assay; settings: A549, 48 h
MOLT-4 = assay: Cytotoxicity against Homo sapiens (human) MOLT4 cells after 48 hr by SRB assay; settings: MOLT-4, 48 h
CCRF-CEM = assay: Cytotoxicity against Homo sapiens (human) CCRF-CEM cells after 48 hr by SRB assay
MCF7 [11] = assay: Cytotoxicity against Homo sapiens (human) MCF7 cells assessed as cellular growth after 48 hr by Alamar blue assay; set-up: concentration or dose not given beside the values

`O=S(=O)(/N=c1\scc(-c2ccccc2)n1-c1ccccc1)c1ccc(N2N=C3c4ccccc4CC3C2c2cccs2)cc1` (centres undefined) showed a GI50 (MDA-MB-435) of 38.7 µM, a GI50 (M14) of 81.5 µM and a GI50 (LOX IMVI) of 32.4 µM. For the same compound, the GI50 (U-251) was 31.2 µM, the GI50 (SNB-75) was over 100 µM and the GI50 (Hs-578T) was 60.6 µM. The GI50 (MCF7 [1]) was 29.1 µM, the GI50 (MDA-MB-231) was 52.1 µM and the GI50 (DU-145) was over 100 µM. It also gave a GI50 (UO-31) of over 100 µM, a GI50 (CAKI-1) of 73 µM and a GI50 (ACHN) of 42.5 µM. For the same compound, the GI50 (786-0) was 64.2 µM, the GI50 (OVCAR-8) was 47.2 µM and the GI50 (OVCAR-5) was 88.9 µM. For the same compound, the GI50 (OVCAR-4) was over 100 µM, the GI50 (OVCAR-3) was over 100 µM and the GI50 (UACC-62) was 60.3 µM. For the same compound, the GI50 (UACC-257) was over 100 µM, the GI50 (SK-MEL-5) was 48 µM and the GI50 [2] was 61.1 µM. The TGI [2] was over 100 µM, the GI50 [3] was 87.5 µM and the TGI [3] was over 100 µM. For the same compound, the GI50 [4] was 72.1 µM, the TGI [4] was 96.5 µM and the GI50 [5] was 74.6 µM. For the same compound, the TGI [5] was over 100 µM, the GI50 [6] was 80.9 µM and the TGI [6] was over 100 µM. The GI50 [7] was 68.1 µM, the TGI [7] was 96.9 µM and the GI50 [8] was 66.8 µM. For the same compound, the TGI [8] was 98.2 µM, the Activity (NCI-H460) was “<=32%” and the GI50 [9] was 55 µM. It also gave a TGI [9] of 90.9 µM, a GI50 (T47D) of over 100 µM and a GI50 (SF-539) of over 100 µM. For the same compound, the GI50 (SF-295) was 54.5 µM, the GI50 (SF-268) was over 100 µM and the GI50 (HCT-15) was 67.4 µM. It also gave a GI50 (HT-29) of 82 µM, a GI50 (HCC 2998) of 32.8 µM and a GI50 (NCI-H522) of 61.9 µM. For the same compound, the GI50 (COLO 205) was over 100 µM, the GI50 (NCI-H23) was 68 µM and the GI50 [10] was 31.4 µM. For the same compound, the GI50 (EKVX) was 35.5 µM, the GI50 (HOP-62) was 73.2 µM and the GI50 (A549) was 57 µM. The GI50 (MOLT-4) was 19 µM, the GI50 (CCRF-CEM) was 50.3 µM and the Activity (MCF7 [11]) was “<=32%”.
